Legend:
[1] = test system: granulocyte-mediated suppression of T cell proliferation; experiment: T cell/granulocyte co-culture assay, healthy donor; type: cell-based, human
Experimental: T cell and NK cell proliferation assays. T cells or NK cells were purified from healthy donor human blood or from murine splenocytes using a negative selection kit for the appropriate cell type and species from Stemcell Technologies. Isolated T cells or NK cells were loaded with carboxyfluorescein succinimidyl ester (CFSE, Thermo Fisher) and stimulated for 72-96 h in complete growth media containing a minimum of either 50 µM L-arginine (NK cells) or 100 μM L-arginine (T cells). […] Proliferation was quantified by analyzing CFSE dilution by flow cytometry (Guava flow cytometer, Millipore, Billerica, Mass. or Attune N×T flow cytometer, ThermoFisher).
T cell/myeloid cell co-culture assays. […] Granulocytes were incubated for 48 h at 37° C., during which time they spontaneously activate as determined by surface expression of CD66b and scatter properties. […] Co-cultures were incubated for 3-4 days, at which time media were analyzed for L-arginine and L-ornithine by mass spectrometry and T cell proliferation was determined by flow cytometry. […] Cytokines were quantified in the media from T cell co-culture assays using the Cytometric Bead Array kit according to the manufacturer's instructions (BD Biosciences).

[2] = test system: G-MDSC-mediated suppression of T cell proliferation; experiment: T cell proliferation in media conditioned by G-MDSC of a lung cancer patient; type: cell-based, human
Experimental: T cell/myeloid cell co-culture assays. […] Granulocytes were incubated for 48 h at 37° C., during which time they spontaneously activate as determined by surface expression of CD66b and scatter properties. T cells isolated from the same donor using a pan-T cell isolation kit (Stemcell Technologies) were loaded with CFSE and plated with immobilized anti-CD3 and soluble anti-CD28 in the presence of the aged granulocytes. The cells were co-cultured at several ratios of granulocytes to T cells as indicated or at a fixed ratio of 4 T cells to 1 granulocyte. Co-cultures were incubated for 3-4 days, at which time media were analyzed for L-arginine and L-ornithine by mass spectrometry and T cell proliferation was determined by flow cytometry. Granulocytic MDSC (G-MDSC) or granulocytes from cancer patients were isolated from whole blood purchased from Conversant Biologics. G-MDSCs were purified from the PBMC layer of a Ficoll gradient by positive selection for CD66b^+ cells. Granulocytes were purified from the RBC layer of a Ficoll gradient using Hetasep (Stemcell Technologies). […] Cytokines were quantified in the media from T cell co-culture assays using the Cytometric Bead Array kit according to the manufacturer's instructions (BD Biosciences).

**Q.** With `C[C@H](N)C(=O)N1C[C@H](CCCB(O)O)[C@](N)(C(=O)O)C1` [arginase inhibitor] as the compound, how does the “T cell proliferation restored, of the proliferation observed for T cells without granulocytes” value ([1]; co-culture with healthy donor granulocytes) read?
**A.** 90%

**Q.** What about the “Depletion of L-arginine from the media by granulocytes” value ([1]; healthy donor granulocytes) of the same compound?
**A.** blocked depletion of L-arginine

**Q.** What about the “Arginine depletion of the media” value ([2]; G-MDSC of a lung cancer patient) of the same compound?
**A.** arginine depletion was blocked

**Q.** And the “T cell proliferation restored, of control levels” value ([2]; media conditioned by G-MDSC of a lung cancer patient)?
**A.** 99%
